Source: patent US10231954B2, “Neurodegenerative therapies” (LYTIX BIOPHARMA AS, priority 2014, dated 2019)

Assays:
Assay type in all cases: biochemical
RSK1 = RSK1 (Homo sapiens, UniProt Q15418); assay: Kinase profiling RSK1
Source text: (§1) Any value less that 25 is considered to be highly significant inhibition.

MLK3 = MLK3 (Homo sapiens, UniProt Q16584); assay: Kinase profiling MLK3
Source text: as §1

PKBa = PKBa (Homo sapiens, UniProt P31749); assay: Kinase profiling PKBa
Source text: as §1

CAMKKb = CAMKKb (Homo sapiens, UniProt Q96RR4); assay: Kinase profiling CAMKKb
Source text: as §1

S6K1 = S6K1 (Homo sapiens, UniProt P23443); assay: Kinase profiling S6K1
Sequence of S6K1 (P23443 whole entry, species assumed): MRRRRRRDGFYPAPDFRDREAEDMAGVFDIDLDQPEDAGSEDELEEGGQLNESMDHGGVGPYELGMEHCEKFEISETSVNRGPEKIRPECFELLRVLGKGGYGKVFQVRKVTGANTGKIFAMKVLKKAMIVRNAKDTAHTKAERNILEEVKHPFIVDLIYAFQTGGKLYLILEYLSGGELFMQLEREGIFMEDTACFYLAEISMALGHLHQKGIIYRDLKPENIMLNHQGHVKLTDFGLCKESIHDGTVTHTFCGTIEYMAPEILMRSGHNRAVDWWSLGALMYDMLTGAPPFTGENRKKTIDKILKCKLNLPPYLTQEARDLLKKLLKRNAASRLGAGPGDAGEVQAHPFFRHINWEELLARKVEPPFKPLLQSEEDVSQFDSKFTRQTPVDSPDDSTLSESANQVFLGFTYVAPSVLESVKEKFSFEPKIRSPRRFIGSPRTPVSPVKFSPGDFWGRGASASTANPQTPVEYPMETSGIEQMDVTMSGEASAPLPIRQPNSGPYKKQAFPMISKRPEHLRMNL
Source text: as §1

JAK2 = JAK2 (Homo sapiens, UniProt O60674); assay: Kinase profiling JAK2
Sequence of JAK2 (O60674 whole entry, species assumed): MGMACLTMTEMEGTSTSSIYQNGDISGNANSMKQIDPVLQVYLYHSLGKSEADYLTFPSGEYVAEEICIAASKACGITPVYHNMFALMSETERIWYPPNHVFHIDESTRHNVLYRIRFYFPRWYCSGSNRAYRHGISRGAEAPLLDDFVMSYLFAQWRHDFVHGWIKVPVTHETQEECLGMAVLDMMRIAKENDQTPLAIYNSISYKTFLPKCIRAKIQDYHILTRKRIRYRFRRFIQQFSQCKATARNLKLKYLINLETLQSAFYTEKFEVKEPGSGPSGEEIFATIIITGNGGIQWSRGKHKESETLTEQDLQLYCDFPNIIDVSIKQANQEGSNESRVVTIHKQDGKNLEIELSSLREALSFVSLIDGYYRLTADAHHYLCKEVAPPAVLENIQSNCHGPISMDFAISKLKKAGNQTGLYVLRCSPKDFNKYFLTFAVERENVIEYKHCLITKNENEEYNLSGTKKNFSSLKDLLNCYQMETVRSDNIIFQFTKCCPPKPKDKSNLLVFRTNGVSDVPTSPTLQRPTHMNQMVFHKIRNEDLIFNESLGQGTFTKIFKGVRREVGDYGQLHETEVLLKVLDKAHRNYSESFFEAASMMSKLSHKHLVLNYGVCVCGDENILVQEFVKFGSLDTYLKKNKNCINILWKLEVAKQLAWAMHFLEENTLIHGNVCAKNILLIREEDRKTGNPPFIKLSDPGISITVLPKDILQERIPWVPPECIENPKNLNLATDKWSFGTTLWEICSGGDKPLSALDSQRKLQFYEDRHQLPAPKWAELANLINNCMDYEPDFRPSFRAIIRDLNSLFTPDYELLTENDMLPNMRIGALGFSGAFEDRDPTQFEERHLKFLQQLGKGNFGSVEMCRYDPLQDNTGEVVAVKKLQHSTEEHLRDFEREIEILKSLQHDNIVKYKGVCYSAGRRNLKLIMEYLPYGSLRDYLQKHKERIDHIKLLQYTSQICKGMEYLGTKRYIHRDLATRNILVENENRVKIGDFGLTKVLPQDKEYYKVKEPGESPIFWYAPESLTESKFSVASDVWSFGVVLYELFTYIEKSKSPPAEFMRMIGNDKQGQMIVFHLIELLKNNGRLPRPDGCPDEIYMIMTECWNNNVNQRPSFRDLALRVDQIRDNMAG
Source text: as §1

IGF-1R = IGF-1R (Homo sapiens, UniProt P08069); assay: Kinase profiling IGF-1R
Source text: as §1

CAMK1 = CAMK1 (Homo sapiens, UniProt Q14012); assay: Kinase profiling CAMK1
Source text: as §1

BTK = BTK (Homo sapiens, UniProt Q06187); assay: Kinase profiling BTK
Sequence of BTK (Q06187 whole entry, species assumed): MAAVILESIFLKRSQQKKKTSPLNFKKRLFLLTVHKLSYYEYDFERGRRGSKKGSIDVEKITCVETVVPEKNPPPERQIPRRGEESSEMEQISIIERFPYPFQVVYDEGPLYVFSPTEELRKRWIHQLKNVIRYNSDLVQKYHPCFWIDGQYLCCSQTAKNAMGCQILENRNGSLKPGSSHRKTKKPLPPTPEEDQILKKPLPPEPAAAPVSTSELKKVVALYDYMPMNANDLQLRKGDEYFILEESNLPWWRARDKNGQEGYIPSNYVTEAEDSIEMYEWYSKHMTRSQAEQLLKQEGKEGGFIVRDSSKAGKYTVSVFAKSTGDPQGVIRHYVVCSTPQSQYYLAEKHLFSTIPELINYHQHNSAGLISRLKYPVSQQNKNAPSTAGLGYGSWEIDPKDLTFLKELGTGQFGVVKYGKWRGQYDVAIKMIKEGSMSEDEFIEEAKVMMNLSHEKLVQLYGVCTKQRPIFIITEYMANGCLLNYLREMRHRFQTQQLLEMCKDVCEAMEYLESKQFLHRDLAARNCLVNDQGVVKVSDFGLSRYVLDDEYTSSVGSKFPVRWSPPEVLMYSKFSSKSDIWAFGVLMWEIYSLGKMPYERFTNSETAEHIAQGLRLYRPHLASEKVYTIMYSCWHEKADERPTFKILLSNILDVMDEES
Source text: as §1

PKA = PKA (Homo sapiens, UniProt P17612); assay: Kinase profiling PKA
Source text: as §1

p38a MAPK = p38a MAPK (Homo sapiens, UniProt Q16539); assay: Kinase profiling p38a MAPK
Sequence of p38a MAPK (Q16539 whole entry): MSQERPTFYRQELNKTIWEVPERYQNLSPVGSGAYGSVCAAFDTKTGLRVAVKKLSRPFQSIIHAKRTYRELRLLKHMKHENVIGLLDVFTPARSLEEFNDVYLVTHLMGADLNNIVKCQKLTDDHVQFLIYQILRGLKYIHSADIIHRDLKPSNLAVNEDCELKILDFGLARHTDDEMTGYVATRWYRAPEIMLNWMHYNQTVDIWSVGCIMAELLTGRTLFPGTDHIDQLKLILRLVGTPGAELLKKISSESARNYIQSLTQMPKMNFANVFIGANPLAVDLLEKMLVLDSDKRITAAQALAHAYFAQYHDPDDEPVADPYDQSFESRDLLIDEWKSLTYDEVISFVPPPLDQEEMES
Source text: as §1

TTK = molecular target: T1, TTK (Homo sapiens, UniProt P33981); assay: Kinase profiling TTK
T1 sequence (P33981 1-857): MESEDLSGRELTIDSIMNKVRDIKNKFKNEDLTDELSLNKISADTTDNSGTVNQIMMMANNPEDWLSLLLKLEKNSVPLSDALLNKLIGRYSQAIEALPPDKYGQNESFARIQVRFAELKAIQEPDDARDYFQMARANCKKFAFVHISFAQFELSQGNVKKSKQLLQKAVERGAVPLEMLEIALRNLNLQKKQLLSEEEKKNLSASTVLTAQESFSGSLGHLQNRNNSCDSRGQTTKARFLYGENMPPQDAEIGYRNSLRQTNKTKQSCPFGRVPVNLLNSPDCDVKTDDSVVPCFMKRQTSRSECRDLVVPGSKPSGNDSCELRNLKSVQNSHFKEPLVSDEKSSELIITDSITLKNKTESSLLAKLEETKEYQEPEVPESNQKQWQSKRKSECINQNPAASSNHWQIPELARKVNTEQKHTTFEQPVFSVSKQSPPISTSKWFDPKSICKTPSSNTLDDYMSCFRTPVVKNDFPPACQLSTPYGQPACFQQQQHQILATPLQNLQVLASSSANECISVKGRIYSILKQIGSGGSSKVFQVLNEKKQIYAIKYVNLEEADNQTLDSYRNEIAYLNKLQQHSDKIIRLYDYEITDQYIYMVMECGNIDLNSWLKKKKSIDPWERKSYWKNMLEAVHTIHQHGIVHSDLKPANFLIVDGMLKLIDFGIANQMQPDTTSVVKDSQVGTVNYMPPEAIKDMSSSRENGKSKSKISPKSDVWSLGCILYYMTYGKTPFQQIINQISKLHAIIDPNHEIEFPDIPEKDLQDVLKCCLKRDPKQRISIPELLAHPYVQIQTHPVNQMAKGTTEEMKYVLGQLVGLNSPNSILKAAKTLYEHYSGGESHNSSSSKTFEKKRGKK
Source text: as §1

[1] = 100 micromolar inhibitor concentration, 100 is no change
[2] = 100 micromolar inhibitor, 100 = no change

Sequence of RSK1 (Q15418 whole entry, species assumed): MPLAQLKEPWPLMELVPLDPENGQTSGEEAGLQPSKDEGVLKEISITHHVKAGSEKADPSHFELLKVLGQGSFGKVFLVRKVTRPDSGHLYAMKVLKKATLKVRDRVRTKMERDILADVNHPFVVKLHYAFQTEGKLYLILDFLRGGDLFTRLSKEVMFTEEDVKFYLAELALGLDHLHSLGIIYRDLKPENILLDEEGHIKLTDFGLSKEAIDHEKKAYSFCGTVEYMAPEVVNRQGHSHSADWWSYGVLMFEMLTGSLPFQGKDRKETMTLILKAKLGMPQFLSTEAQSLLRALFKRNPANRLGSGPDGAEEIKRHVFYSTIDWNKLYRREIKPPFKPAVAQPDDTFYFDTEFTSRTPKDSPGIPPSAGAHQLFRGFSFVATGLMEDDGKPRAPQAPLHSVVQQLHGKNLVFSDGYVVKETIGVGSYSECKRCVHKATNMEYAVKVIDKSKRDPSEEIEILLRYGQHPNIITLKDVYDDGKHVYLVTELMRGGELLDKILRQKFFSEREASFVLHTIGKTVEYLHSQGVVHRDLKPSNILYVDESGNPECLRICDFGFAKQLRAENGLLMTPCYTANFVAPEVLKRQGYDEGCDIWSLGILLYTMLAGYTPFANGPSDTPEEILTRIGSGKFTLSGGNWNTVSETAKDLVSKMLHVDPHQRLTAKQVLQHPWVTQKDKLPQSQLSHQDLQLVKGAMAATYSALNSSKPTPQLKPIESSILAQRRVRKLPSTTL
Sequence of MLK3 (Q16584 whole entry, species assumed): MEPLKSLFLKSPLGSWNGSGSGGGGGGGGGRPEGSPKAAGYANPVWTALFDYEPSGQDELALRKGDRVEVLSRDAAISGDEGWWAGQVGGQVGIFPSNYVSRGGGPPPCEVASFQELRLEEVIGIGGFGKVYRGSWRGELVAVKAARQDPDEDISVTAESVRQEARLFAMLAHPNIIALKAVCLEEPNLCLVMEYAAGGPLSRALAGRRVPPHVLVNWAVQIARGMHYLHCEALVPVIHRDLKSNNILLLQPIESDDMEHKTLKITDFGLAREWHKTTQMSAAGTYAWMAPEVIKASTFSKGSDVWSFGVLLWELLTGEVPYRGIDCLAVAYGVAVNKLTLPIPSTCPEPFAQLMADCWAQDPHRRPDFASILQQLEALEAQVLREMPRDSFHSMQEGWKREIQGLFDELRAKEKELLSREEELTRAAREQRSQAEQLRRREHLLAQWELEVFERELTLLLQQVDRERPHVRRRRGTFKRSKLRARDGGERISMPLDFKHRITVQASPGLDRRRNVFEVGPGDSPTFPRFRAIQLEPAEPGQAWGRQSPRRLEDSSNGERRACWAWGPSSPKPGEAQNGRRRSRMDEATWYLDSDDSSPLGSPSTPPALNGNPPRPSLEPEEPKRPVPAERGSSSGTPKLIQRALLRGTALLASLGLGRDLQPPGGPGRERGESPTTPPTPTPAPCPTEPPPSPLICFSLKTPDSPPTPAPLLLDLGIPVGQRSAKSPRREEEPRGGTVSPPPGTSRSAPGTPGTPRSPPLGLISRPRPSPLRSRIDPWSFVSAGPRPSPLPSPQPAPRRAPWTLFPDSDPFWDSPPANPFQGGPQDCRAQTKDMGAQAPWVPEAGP
Sequence of PKBa (P31749 whole entry): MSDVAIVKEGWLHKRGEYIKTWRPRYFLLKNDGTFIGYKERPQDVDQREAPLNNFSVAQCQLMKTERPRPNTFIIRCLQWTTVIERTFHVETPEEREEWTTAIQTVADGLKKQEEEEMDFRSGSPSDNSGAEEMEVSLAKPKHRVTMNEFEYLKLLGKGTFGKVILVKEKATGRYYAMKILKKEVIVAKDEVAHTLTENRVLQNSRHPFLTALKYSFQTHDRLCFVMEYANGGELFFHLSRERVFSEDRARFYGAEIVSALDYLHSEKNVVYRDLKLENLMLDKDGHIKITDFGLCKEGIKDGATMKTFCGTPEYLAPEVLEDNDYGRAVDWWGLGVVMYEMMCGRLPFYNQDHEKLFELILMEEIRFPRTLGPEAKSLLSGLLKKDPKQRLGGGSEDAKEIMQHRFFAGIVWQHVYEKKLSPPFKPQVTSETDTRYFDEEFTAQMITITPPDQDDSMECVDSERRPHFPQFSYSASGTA

`COC(=O)c1cccc(C(=O)Nc2nc3ccc(F)cc3s2)c1` [Compound 03-110] was tested. Which “residual kinase activity, RSK1” value (RSK1; [1]) did it give?
The value was 70.

What about the “residual kinase activity, MLK3” value (MLK3; [1]) of the same compound?
Its value is 68.

What about the “residual kinase activity, PKBa” value (PKBa; [1]) of the same compound?
Its value is 109.

What about the “residual kinase activity, CAMKKb” value (CAMKKb; [1]) of the same compound?
The value was 62.

And the “residual kinase activity, S6K1” value (S6K1; [1])?
The value was 91.

What about the “residual kinase activity, JAK2” value (JAK2; [1]) of the same compound?
The value was 89.

And the “residual kinase activity, IGF-1R” value (IGF-1R; [1])?
The value was 96.

What about the “residual kinase activity, CAMK1” value (CAMK1; [1]) of the same compound?
Its value is 99.

What about the “residual kinase activity, BTK” value (BTK; [1]) of the same compound?
The value was 77.

What about the “residual kinase activity, PKA” value (PKA; [1]) of the same compound?
The value was 93.

And the “residual kinase activity, p38a MAPK” value (p38a MAPK; [1])?
The value was 106.

What about the “residual kinase activity, TTK” value (TTK; [1]) of the same compound?
Its value is 35.

What does the source list for `CC(=O)Nc1nc2ccc(F)cc2s1` [Compound 03-94]?
residual kinase activity, RSK1 (RSK1; [1]): 85; residual kinase activity, MLK3 (MLK3; [1]): 46; residual kinase activity, PKBa (PKBa; [1]): 94; residual kinase activity, CAMKKb (CAMKKb; [1]): 67; residual kinase activity, S6K1 (S6K1; [1]): 67; residual kinase activity, JAK2 (JAK2; [1]): 49; residual kinase activity, IGF-1R (IGF-1R; [1]): 92; residual kinase activity, CAMK1 (CAMK1; [1]): 86; residual kinase activity, BTK (BTK; [1]): 107; residual kinase activity, PKA (PKA; [1]): 93; residual kinase activity, p38a MAPK (p38a MAPK; [1]): 84; residual kinase activity, TTK (TTK; [1]): 37

For `COc1cccc(NC(=O)Nc2nc3cc(O)ccc3s2)c1` [Compound 13-62], which “residual kinase activity, RSK1” value (RSK1; [2]) is on record?
The value was 25.

And the “residual kinase activity, MLK3” value (MLK3; [2])?
Its value is 13.

What about the “residual kinase activity, PKBa” value (PKBa; [2]) of the same compound?
The value was 66.

And the “residual kinase activity, CAMKKb” value (CAMKKb; [2])?
The value was 25.

What about the “residual kinase activity, S6K1” value (S6K1; [2]) of the same compound?
Its value is 22.

What about the “residual kinase activity, JAK2” value (JAK2; [2]) of the same compound?
The value was 31.

And the “residual kinase activity, IGF-1R” value (IGF-1R; [2])?
The value was 62.

What about the “residual kinase activity, CAMK1” value (CAMK1; [2]) of the same compound?
The value was 8.

What about the “residual kinase activity, BTK” value (BTK; [2]) of the same compound?
The value was 25.

What about the “residual kinase activity, PKA” value (PKA; [2]) of the same compound?
Its value is 104.

What about the “residual kinase activity, p38a MAPK” value (p38a MAPK; [2]) of the same compound?
The value was 21.

And the “residual kinase activity, TTK” value (TTK; [2])?
Its value is 25.

Which “residual kinase activity, RSK1” value (RSK1; [1]) does the source give for `COc1ccc2sc(NC(=O)c3cccc(C(N)=O)c3)nc2c1` [Compound 03-113] here?
Its value is 87.

What about the “residual kinase activity, MLK3” value (MLK3; [1]) of the same compound?
Its value is 73.

And the “residual kinase activity, PKBa” value (PKBa; [1])?
Its value is 89.

And the “residual kinase activity, CAMKKb” value (CAMKKb; [1])?
Its value is 70.

What about the “residual kinase activity, S6K1” value (S6K1; [1]) of the same compound?
Its value is 79.

What about the “residual kinase activity, JAK2” value (JAK2; [1]) of the same compound?
The value was 113.

And the “residual kinase activity, IGF-1R” value (IGF-1R; [1])?
Its value is 104.

And the “residual kinase activity, CAMK1” value (CAMK1; [1])?
The value was 102.

What about the “residual kinase activity, BTK” value (BTK; [1]) of the same compound?
Its value is 74.

And the “residual kinase activity, PKA” value (PKA; [1])?
The value was 101.

What about the “residual kinase activity, p38a MAPK” value (p38a MAPK; [1]) of the same compound?
Its value is 113.

And the “residual kinase activity, TTK” value (TTK; [1])?
Its value is 95.

`COC(=O)c1cccc(C(=O)Nc2nc3ccc(C(F)(F)F)cc3s2)c1` [Compound 03-105, Methyl 3-((6-(trifluoromethyl)benzo[d]thiazol-2-yl)carbamoyl)benzoate] was tested. Which remaining activity at 100 µM (RSK1; read-out: residual kinase activity, RSK1) did it give?
The remaining activity at 100 µM was 87%.

What about the remaining activity at 100 µM (MLK3; read-out: residual kinase activity, MLK3) of the same compound?
The remaining activity at 100 µM was 54%.

And the remaining activity at 100 µM (PKBa; read-out: residual kinase activity, PKBa)?
Its remaining activity at 100 µM is 92%.

What about the remaining activity at 100 µM (CAMKKb; read-out: residual kinase activity, CAMKKb) of the same compound?
The remaining activity at 100 µM was 48%.

What about the remaining activity at 100 µM (S6K1; read-out: residual kinase activity, S6K1) of the same compound?
The remaining activity at 100 µM was 78%.

And the remaining activity at 100 µM (JAK2; read-out: residual kinase activity, JAK2)?
Its remaining activity at 100 µM is 101%.

And the remaining activity at 100 µM (IGF-1R; read-out: residual kinase activity, IGF-1R)?
Its remaining activity at 100 µM is 101%.

And the remaining activity at 100 µM (CAMK1; read-out: residual kinase activity, CAMK1)?
Its remaining activity at 100 µM is 92%.

And the remaining activity at 100 µM (BTK; read-out: residual kinase activity, BTK)?
The remaining activity at 100 µM was 95%.

And the remaining activity at 100 µM (PKA; read-out: residual kinase activity, PKA)?
The remaining activity at 100 µM was 96%.

And the remaining activity at 100 µM (p38a MAPK; read-out: residual kinase activity, p38a MAPK)?
Its remaining activity at 100 µM is 84%.

What about the remaining activity at 100 µM (TTK; read-out: residual kinase activity, TTK) of the same compound?
The remaining activity at 100 µM was 9%.

`O=C(Nc1nc2cc(O)ccc2s1)c1ccccc1` [Compound 03-102] was tested. Which “residual kinase activity, RSK1” value (RSK1; [1]) did it give?
The value was 41.

And the “residual kinase activity, MLK3” value (MLK3; [1])?
The value was 15.

What about the “residual kinase activity, PKBa” value (PKBa; [1]) of the same compound?
Its value is 88.

What about the “residual kinase activity, CAMKKb” value (CAMKKb; [1]) of the same compound?
Its value is 32.

And the “residual kinase activity, S6K1” value (S6K1; [1])?
The value was 42.

And the “residual kinase activity, JAK2” value (JAK2; [1])?
The value was 47.

And the “residual kinase activity, IGF-1R” value (IGF-1R; [1])?
Its value is 52.

And the “residual kinase activity, CAMK1” value (CAMK1; [1])?
The value was 72.

What about the “residual kinase activity, BTK” value (BTK; [1]) of the same compound?
The value was 81.

And the “residual kinase activity, PKA” value (PKA; [1])?
The value was 93.

And the “residual kinase activity, p38a MAPK” value (p38a MAPK; [1])?
Its value is 57.

And the “residual kinase activity, TTK” value (TTK; [1])?
The value was 30.
